Where two headings read alike, the source gives them in different places.
Columns and labels:
monkey NPR1 = monkey NPR1 (Macaca fascicularis, UniProt A0A7N9DBT9); assay: Cellular cGMP production assay, monkey NPR1 expressing CHO-K1 cells (CisBio HTRF); assay type: cell-based; conditions: for Monkey NPR1 Amax (% of ANP): maximum cGMP production as percentage of the maximum cGMP produced with ANP
Outline: (§1)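 CHO-K1 cells expressing human or cynomolgus NPR1 treated with compound (12-point, 3-fold dilutions from 30 μM top) in PBS+0.1% BSA with 1 mM IBMX, 30 min at 37° C. After lysis, cGMP quantified by HTRF competition (cGMP-d2/anti-cGMP-cryptate, 1 h RT, 665 nm emission) against a calibrator standard curve.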

human NPR1 = target: T1, human NPR1 (Homo sapiens, UniProt P16066); assay: Cellular cGMP production assay, human NPR1 expressing CHO-K1 cells (CisBio HTRF); assay type: cell-based; conditions: for AC50: cGMP production, 30 min at 37° C., 12-point dose-response from 30 μM; for Human NPR1 Amax (% of ANP): maximum cGMP production as percentage of the maximum cGMP produced with ANP
T1 construct: host or cells: CHO-K1
T1 sequence (P16066 33-1061): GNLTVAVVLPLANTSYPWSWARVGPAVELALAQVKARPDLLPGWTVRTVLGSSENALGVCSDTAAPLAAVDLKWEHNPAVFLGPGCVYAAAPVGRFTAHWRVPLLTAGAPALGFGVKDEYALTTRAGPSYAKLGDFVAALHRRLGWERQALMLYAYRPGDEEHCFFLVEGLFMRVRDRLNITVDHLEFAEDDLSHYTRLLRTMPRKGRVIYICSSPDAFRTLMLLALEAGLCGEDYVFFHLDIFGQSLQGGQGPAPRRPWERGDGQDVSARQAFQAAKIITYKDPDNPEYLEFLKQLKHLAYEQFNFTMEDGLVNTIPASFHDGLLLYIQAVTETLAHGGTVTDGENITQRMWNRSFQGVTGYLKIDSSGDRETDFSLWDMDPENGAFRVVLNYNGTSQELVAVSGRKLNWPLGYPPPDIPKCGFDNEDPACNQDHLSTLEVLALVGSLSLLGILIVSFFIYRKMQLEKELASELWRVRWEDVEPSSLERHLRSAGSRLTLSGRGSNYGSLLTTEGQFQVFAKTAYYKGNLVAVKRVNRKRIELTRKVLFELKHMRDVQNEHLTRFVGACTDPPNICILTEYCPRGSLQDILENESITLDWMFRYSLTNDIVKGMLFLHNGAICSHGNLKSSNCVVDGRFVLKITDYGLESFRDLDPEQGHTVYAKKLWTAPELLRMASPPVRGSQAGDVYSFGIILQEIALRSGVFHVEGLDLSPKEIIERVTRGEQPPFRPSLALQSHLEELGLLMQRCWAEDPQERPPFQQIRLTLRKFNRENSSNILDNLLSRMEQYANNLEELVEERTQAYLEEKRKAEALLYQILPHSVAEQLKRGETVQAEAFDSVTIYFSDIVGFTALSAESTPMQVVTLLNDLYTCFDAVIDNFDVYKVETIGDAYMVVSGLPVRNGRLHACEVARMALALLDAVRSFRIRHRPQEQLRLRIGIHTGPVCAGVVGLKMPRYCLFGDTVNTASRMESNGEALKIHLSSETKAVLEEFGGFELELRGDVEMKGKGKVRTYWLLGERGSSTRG
Outline: as §1

[1] = cGMP production, monkey NPR1 CHO-K1 cells, 30 min at 37° C., 12-point dose-response from 30 μM, read-out: Monkey NPR1 AC50

Chain of monkey NPR1 (A0A7N9DBT9 entry or part of it): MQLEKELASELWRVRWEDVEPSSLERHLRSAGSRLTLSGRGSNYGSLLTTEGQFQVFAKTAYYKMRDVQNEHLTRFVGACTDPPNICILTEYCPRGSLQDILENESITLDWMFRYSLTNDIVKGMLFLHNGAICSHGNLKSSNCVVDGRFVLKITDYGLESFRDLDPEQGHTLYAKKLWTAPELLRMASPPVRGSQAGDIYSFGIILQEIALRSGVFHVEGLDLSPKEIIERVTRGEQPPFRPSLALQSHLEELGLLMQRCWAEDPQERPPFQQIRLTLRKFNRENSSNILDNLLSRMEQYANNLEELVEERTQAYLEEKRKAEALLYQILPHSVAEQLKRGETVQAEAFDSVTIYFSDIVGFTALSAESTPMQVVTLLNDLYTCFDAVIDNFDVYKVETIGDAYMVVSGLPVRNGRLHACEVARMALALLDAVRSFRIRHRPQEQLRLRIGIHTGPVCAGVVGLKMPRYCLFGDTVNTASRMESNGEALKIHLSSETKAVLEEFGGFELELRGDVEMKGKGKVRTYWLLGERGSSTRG

Compound	AC50 (monkey NPR1; [1]) [nM]	Monkey NPR1 Amax (% of ANP) (monkey NPR1; monkey NPR1 CHO-K1 cells)	AC50 (human NPR1) [nM]	Human NPR1 Amax (% of ANP) (human NPR1)	AC50 (monkey NPR1) [nM]
CC[C@H]([C@H]1CC[C@H](C(=O)O)CC1)N(C)c1nc2c(c(N[C@@H](CN3CCCC[C@H]3CO)c3cnn(CC)c3)n1)C[C@H](c1cccc(F)c1)CC2 [Compound 135, (1R,4r)-4-((R)-1-(((R)-4-(((R)-1-(1-ethyl-1H-pyrazol-4-yl)-2-((S)-2-(hydroxymethyl)piperidin-1-yl)ethyl)amino)-6-(3-fluorophenyl)-5,6,7,8-tetrahydroquinazolin-2-yl)(methyl)amino)propyl)cyclohexane-1-carboxylic acid]	604	99.242 % of ANP	805	94.757 % of ANP	
CC[C@H]([C@H]1CC[C@H](C(=O)O)CC1)N(C)c1nc2c(c(N[C@@H](CN3CC4CCC3C4)c3ccccc3)n1)C[C@H](c1ccccc1)CC2 (stereo partly drawn) [Compound 136, (1R,4r)-4-((1R)-1-(((6R)-4-(((1R)-2-(2-azabicyclo[2.2.1]heptan-2-yl)-1-phenylethyl)amino)-6-phenyl-5,6,7,8-tetrahydroquinazolin-2-yl)(methyl)amino)propyl)cyclohexane-1-carboxylic acid]	516	96.754 % of ANP	812	103.913 % of ANP	
CC[C@@H](Nc1nc2c(c(N[C@@H](CN3CCCC(F)(F)CC3)c3cnn(CC)c3)n1)C[C@H](c1ccccc1)CC2)[C@H]1CC[C@H](C(=O)O)CC1 [Compound 137, (1R,4r)-4-((R)-1-(((R)-4-(((R)-2-(4,4-difluoroazepan-1-yl)-1-(1-ethyl-1H-pyrazol-4-yl)ethyl)amino)-6-phenyl-5,6,7,8-tetrahydroquinazolin-2-yl)amino)propyl)cyclohexane-1-carboxylic acid]	379	99.351 % of ANP	840	95.603 % of ANP	
CC[C@H]([C@H]1CC[C@H](C(=O)O)CC1)N(C)c1nc2c(c(N[C@@H](CN3C[C@H]4C[C@@H](C3)C4O)c3cnn(C)c3)n1)C[C@H](c1ccccc1)CC2 (stereo partly drawn) [Compound 138, (1R,4r)-4-((1R)-1-(((6R)-4-(((1R)-2-((1R,5S)-6-hydroxy-3-azabicyclo[3.1.1]heptan-3-yl)-1-(1-methyl-1H-pyrazol-4-yl)ethyl)amino)-6-phenyl-5,6,7,8-tetrahydroquinazolin-2-yl)(methyl)amino)propyl)cyclohexane-1-carboxylic acid]		101.929 % of ANP	852	105.993 % of ANP	734
O=C(O)[C@H]1CC[C@H](C(CC2CC2)Nc2nc3c(c(N[C@@H](CN4CCCC4)c4ccccc4)n2)CC(c2ccccc2)CC3)CC1 (stereo partly drawn) [Compound 139, (1R,4r)-4-((1R)-2-cyclopropyl-1-((6-phenyl-4-(((R)-1-phenyl-2-(pyrrolidin-1-yl)ethyl)amino)-5,6,7,8-tetrahydroquinazolin-2-yl)amino)ethyl)cyclohexane-1-carboxylic acid]	696	111.911 % of ANP	876	105.089 % of ANP	
CC[C@@H](N(C)c1nc2c(c(N[C@@H](CN3CCC[C@H](C)C3)c3cc(C)nn3C)n1)C[C@H](c1ccccc1)CC2)C12CC(C(=O)O)(C1)C2 [Compound 140, 3-(1-(((R)-4-(((S)-1-(1,3-dimethyl-1H-pyrazol-5-yl)-2-((S)-3-methylpiperidin-1-yl)ethyl)amino)-6-phenyl-5,6,7,8-tetrahydroquinazolin-2-yl)(methyl)amino)-1l3-propyl)bicyclo[1.1.1]pentane-1-carboxylic acid]	499	96.883 % of ANP	885	89.152 % of ANP	
CC[C@H]([C@H]1CC[C@H](C(=O)O)CC1)N(C)c1nc2c(c(N[C@@H](CN3CCC[C@H](C)C3)c3cnn(C)c3)n1)C[C@@H](c1ccccc1F)CC2 [Compound 141, (1R,4r)-4-((R)-1-(((S)-6-(2-fluorophenyl)-4-(((R)-1-(1-methyl-1H-pyrazol-4-yl)-2-((S)-3-methylpiperidin-1-yl)ethyl)amino)-5,6,7,8-tetrahydroquinazolin-2-yl)(methyl)amino)propyl)cyclohexane-1-carboxylic acid]	731	105.798 % of ANP	888	102.728 % of ANP	
CC[C@@H](Nc1nc2c(c(N[C@@H](CN3CCC(F)CC3)c3cnn(C)c3)n1)C[C@H](c1ccccc1)CC2)[C@H]1CC[C@H](C(=O)O)CC1 [Compound 142, (1R,4r)-4-((R)-1-(((R)-4-(((R)-2-(4-fluoropiperidin-1-yl)-1-(1-methyl-1H-pyrazol-4-yl)ethyl)amino)-6-phenyl-5,6,7,8-tetrahydroquinazolin-2-yl)amino)propyl)cyclohexane-1-carboxylic acid]	313	95.614 % of ANP	901	107.815 % of ANP	
CC[C@H]([C@H]1CC[C@H](C(=O)O)CC1)N(C)c1nc2c(c(N[C@@H](CN3C4CCCC3CCC4)c3cnn(C)c3)n1)C[C@H](c1ccccc1)CC2 [Compound 143, (1R,4r)-4-((R)-1-(((R)-4-(((R)-2-((1S,5S)-9-azabicyclo[3.3.1]nonan-9-yl)-1-(1-methyl-1H-pyrazol-4-yl)ethyl)amino)-6-phenyl-5,6,7,8-tetrahydroquinazolin-2-yl)(methyl)amino)propyl)cyclohexane-1-carboxylic acid]		100.784 % of ANP	920	104.085 % of ANP	694
CC[C@H]([C@H]1CC[C@H](C(=O)O)CC1)N(C)c1nc2c(c(N[C@@H](CN3CCCC(C)(F)C3)c3cnn(C)c3)n1)C[C@H](c1ccccc1)CC2 (stereo partly drawn) [Compound 144, (1R,4r)-4-((1R)-1-(((6R)-4-(((1R)-2-(3-fluoro-3-methylpiperidin-1-yl)-1-(1-methyl-1H-pyrazol-4-yl)ethyl)amino)-6-phenyl-5,6,7,8-tetrahydroquinazolin-2-yl)(methyl)amino)propyl)cyclohexane-1-carboxylic acid]	873	152.392 % of ANP	985	114.314 % of ANP	
CC[C@H]([C@H]1CC[C@H](C(=O)O)CC1)N(C)c1nc2c(c(N[C@@H](CN3CCC(C)CC3)c3cnn(C)c3)n1)C[C@H](c1ccccc1)CC2 [Compound 145, (1R,4r)-4-((R)-1-(methyl((R)-4-(((R)-1-(1-methyl-1H-pyrazol-4-yl)-2-(4-methylpiperidin-1-yl)ethyl)amino)-6-phenyl-5,6,7,8-tetrahydroquinazolin-2-yl)amino)propyl)cyclohexane-1-carboxylic acid]	900	103.150 % of ANP	1050	97.636 % of ANP	
CC[C@H]([C@H]1CC[C@H](C(=O)O)CC1)N(C)c1nc2c(c(N[C@@H](CN3CCCC3)c3ccccc3)n1)C[C@H](c1ccccc1)CC2 [Compound 146, (1R,4r)-4-((R)-1-(methyl((R)-6-phenyl-4-(((R)-1-phenyl-2-(pyrrolidin-1-yl)ethyl)amino)-5,6,7,8-tetrahydroquinazolin-2-yl)amino)propyl)cyclohexane-1-carboxylic acid]	702	96.864 % of ANP	1070	104.657 % of ANP	
